Assay results from ChEMBL document CHEMBL1151033, “Tricyclic cephems as inhibitors of human leukocyte elastase. Furo[3,4-c]cepham sulfones” (Bioorg Med Chem Lett, 1995).

Columns and labels:
[1] = Hydrolytic stability at 37 degrees Celsius in 50 mM phosphate buffer (2 % v/v MeCN as solubilising vehicle) at pH 7.4; assay type: physicochemical
[2] = target: T1, Neutrophil elastase (Homo sapiens) (UniProt P08246); test: Inhibitory activity against human leukocyte elastase (HLE) expressed as second order inhibition rate constant
T1 sequence (whole entry): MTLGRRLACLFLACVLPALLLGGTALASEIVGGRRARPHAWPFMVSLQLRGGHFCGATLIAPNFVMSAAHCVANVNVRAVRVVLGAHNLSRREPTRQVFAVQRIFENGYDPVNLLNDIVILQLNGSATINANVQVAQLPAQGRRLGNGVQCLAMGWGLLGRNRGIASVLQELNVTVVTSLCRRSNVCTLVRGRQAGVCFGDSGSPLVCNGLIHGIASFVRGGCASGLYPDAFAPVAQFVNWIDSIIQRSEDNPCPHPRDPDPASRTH

| half-life [1] [h] | k on [2] [M⁻¹ s⁻¹] | Compound |
| --- | --- | --- |
| 180 | 500 | CO[C@H]1C(=O)N2c3c(coc3C(C)(C)C)CS(=O)(=O)[C@H]12 |
| 26 | – | CO[C@H]1C(=O)N2C(C(=O)c3ccccc3)=C(C)CS(=O)(=O)[C@H]12 |
| 71 | 2000 | CO[C@H]1C(=O)N2c3c(coc3-c3ccccc3)CS(=O)(=O)[C@H]12 |
| – | 1100 | CO[C@H]1C(=O)N2c3c(coc3C(C)(C)C)[C@@H](CC(=O)OC(C)(C)C)S(=O)(=O)[C@H]12 |
| 104 | – | CO[C@H]1C(=O)N2C(C(=O)C(C)(C)C)=C(C)CS(=O)(=O)[C@H]12 |
| 520 | 8800 | CO[C@H]1C(=O)N2c3c(coc3C(C)(C)C)[C@]3(CC3(c3ccccc3)c3ccccc3)S(=O)(=O)[C@H]12 |
| 140 | 1000 | CO[C@H]1C(=O)N2c3c(coc3C(C)(C)C)[C@@H](C)S(=O)(=O)[C@H]12 |
